Source: ChEMBL document CHEMBL1201862, “PubChem BioAssay data set” (2004)
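Cells were grown in 96-well plates and exposed to each compound for 48 hours at five concentrations; endpoints were interpolated linearly between bracketing concentrations, or set to the highest concentration if not reached. At the GI50, growth is halved.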 Activity calls are given as the source filed them. Cut-off read from the data, not from the text of the source: active = GI50 up to about 1.1 µM and inactive = higher.

Tests used:
Assay in all cases: growth of human tumour cells (NCI), 48 h
786-0 = test system: 786-0
A498 = test system: A498
ACHN = test system: ACHN
BT-549 = test system: BT-549
CAKI-1 = test system: CAKI-1
COLO 205 = test system: COLO 205
DU-145 = test system: DU-145
EKVX = test system: EKVX
HCC 2998 = test system: HCC 2998
HCT-116 = test system: HCT-116
HCT-15 = test system: HCT-15
HL-60 = test system: HL-60
HOP-62 = test system: HOP-62
HT-29 = test system: HT-29
Hs-578T = test system: Hs-578T
IGROV-1 = test system: IGROV-1
K562 = test system: K562
KM12 = test system: KM12
LOX IMVI = test system: LOX IMVI
MCF7 = test system: MCF7
MDA-MB-231 = test system: MDA-MB-231
MDA-MB-435 = test system: MDA-MB-435
MDA-N = test system: MDA-N
MOLT-4 = test system: MOLT-4
Malme-3M = test system: Malme-3M
NCI-H226 = test system: NCI-H226
NCI-H23 = test system: NCI-H23
NCI-H460 = test system: NCI-H460
NCI-H522 = test system: NCI-H522
NCI/ADR-RES = test system: NCI/ADR-RES
OVCAR-3 = test system: OVCAR-3
OVCAR-4 = test system: OVCAR-4
OVCAR-5 = test system: OVCAR-5
OVCAR-8 = test system: OVCAR-8
PC-3 = test system: PC-3
RPMI-8226 = test system: RPMI-8226
RXF 393 = test system: RXF 393
SF-268 = test system: SF-268
SF-295 = test system: SF-295
SK-MEL-28 = test system: SK-MEL-28
SK-MEL-2 = test system: SK-MEL-2
SK-MEL-5 = test system: SK-MEL-5
SN12C = test system: SN12C
SNB-19 = test system: SNB-19
SNB-75 = test system: SNB-75
SR = test system: SR
SW-620 = test system: SW-620
T47D = test system: T47D
TK-10 = test system: TK-10
U-251 = test system: U-251
UACC-257 = test system: UACC-257
UACC-62 = test system: UACC-62
UO-31 = test system: UO-31
CCRF-CEM = test system: CCRF-CEM
HOP-92 = test system: HOP-92
M14 = test system: M14
SK-OV-3 = test system: SK-OV-3
A549 = test system: A549
SF-539 = test system: SF-539

CNC(=S)Nc1sc2c(c1C#N)CCCC2
GI50 (786-0): > 75 µM (inactive) | GI50 (A498): > 75 µM (inactive) | GI50 (ACHN): > 75 µM (inactive) | GI50 (BT-549): > 75 µM (inactive) | GI50 (CAKI-1): > 75 µM (inactive) | GI50 (COLO 205): > 75 µM (inactive) | GI50 (DU-145): > 75 µM (inactive) | GI50 (EKVX): > 75 µM (inactive) | GI50 (HCC 2998): > 75 µM (inactive) | GI50 (HCT-116): > 75 µM (inactive) | GI50 (HCT-15): > 75 µM | GI50 (HL-60): > 75 µM (inactive) | GI50 (HOP-62): > 75 µM (inactive) | GI50 (HT-29): > 75 µM (inactive) | GI50 (Hs-578T): > 75 µM (inactive) | GI50 (IGROV-1): > 75 µM (inactive) | GI50 (K562): > 75 µM (inactive) | GI50 (KM12): > 75 µM (inactive) | GI50 (LOX IMVI): > 75 µM (inactive) | GI50 (MCF7): > 75 µM (inactive) | GI50 (MDA-MB-231): > 75 µM (inactive) | GI50 (MDA-MB-435): > 75 µM (inactive) | GI50 (MDA-N): > 75 µM (inactive) | GI50 (MOLT-4): > 75 µM (inactive) | GI50 (Malme-3M): > 75 µM (inactive) | GI50 (NCI-H226): > 75 µM (inactive) | GI50 (NCI-H23): > 75 µM (inactive) | GI50 (NCI-H460): > 75 µM (inactive) | GI50 (NCI-H522): > 75 µM (inactive) | GI50 (NCI/ADR-RES): > 75 µM (inactive) | GI50 (OVCAR-3): > 75 µM (inactive) | GI50 (OVCAR-4): > 75 µM (inactive) | GI50 (OVCAR-5): > 75 µM (inactive) | GI50 (OVCAR-8): > 75 µM (inactive) | GI50 (PC-3): > 75 µM (inactive) | GI50 (RPMI-8226): > 75 µM (inactive) | GI50 (RXF 393): > 75 µM (inactive) | GI50 (SF-268): > 75 µM (inactive) | GI50 (SF-295): > 75 µM (inactive) | GI50 (SK-MEL-28): > 75 µM (inactive) | GI50 (SK-MEL-2): > 75 µM (inactive) | GI50 (SK-MEL-5): > 75 µM (inactive) | GI50 (SN12C): > 75 µM (inactive) | GI50 (SNB-19): > 75 µM (inactive) | GI50 (SNB-75): > 75 µM (inactive) | GI50 (SR): > 75 µM (inactive) | GI50 (SW-620): > 75 µM (inactive) | GI50 (T47D): > 75 µM (inactive) | GI50 (TK-10): > 75 µM (inactive) | GI50 (U-251): > 75 µM (inactive) | GI50 (UACC-257): > 75 µM (inactive) | GI50 (UACC-62): > 75 µM (inactive) | GI50 (UO-31): > 75 µM (inactive)

C[C@@H]1CC[C@H]2[C@H]1[C@H]1[C@@H](CC[C@]2(C)N=C=S)C1(C)C
GI50 (BT-549): 18.7 µM (inactive) | GI50 (CAKI-1): 37.8 µM (inactive) | GI50 (CCRF-CEM): 13.3 µM (inactive) | GI50 (COLO 205): 18.5 µM (inactive) | GI50 (DU-145): 23.4 µM (inactive) | GI50 (HCC 2998): 16.1 µM (inactive) | GI50 (HCT-116): 17.9 µM (inactive) | GI50 (HCT-15): 27.8 µM | GI50 (HL-60): 19.1 µM (inactive) | GI50 (HOP-62): 31.8 µM (inactive) | GI50 (HOP-92): 30.7 µM (inactive) | GI50 (HT-29): 19.9 µM (inactive) | GI50 (Hs-578T): 48.1 µM (inactive) | GI50 (IGROV-1): 45 µM (inactive) | GI50 (K562): 16.2 µM (inactive) | GI50 (KM12): 17 µM (inactive) | GI50 (LOX IMVI): 59.4 µM (inactive) | GI50 (M14): 18.5 µM (inactive) | GI50 (MCF7): 17.5 µM (inactive) | GI50 (MDA-MB-231): 30.1 µM (inactive) | GI50 (MDA-MB-435): 24.8 µM (inactive) | GI50 (MDA-N): 1.96 µM (inactive) | GI50 (MOLT-4): 13.8 µM (inactive) | GI50 (Malme-3M): 22.5 µM (inactive) | GI50 (NCI-H226): 17.7 µM (inactive) | GI50 (NCI-H23): 29.5 µM (inactive) | GI50 (NCI-H460): 20.4 µM (inactive) | GI50 (NCI/ADR-RES): 21.7 µM (inactive) | GI50 (OVCAR-3): 19.3 µM (inactive) | GI50 (OVCAR-4): 44.9 µM (inactive) | GI50 (OVCAR-5): 28.3 µM (inactive) | GI50 (OVCAR-8): 41.7 µM (inactive) | GI50 (PC-3): 26.7 µM (inactive) | GI50 (RPMI-8226): 17.2 µM (inactive) | GI50 (RXF 393): 15.5 µM (inactive) | GI50 (SF-295): 21.4 µM (inactive) | GI50 (SK-MEL-28): 21.1 µM (inactive) | GI50 (SK-MEL-2): 22.8 µM (inactive) | GI50 (SK-MEL-5): 17.5 µM (inactive) | GI50 (SK-OV-3): 49.3 µM (inactive) | GI50 (SN12C): 19.6 µM (inactive) | GI50 (SNB-19): > 10 µM (inactive) | GI50 (SNB-75): 50.5 µM (inactive) | GI50 (SR): 22.1 µM (inactive) | GI50 (SW-620): 15.1 µM (inactive) | GI50 (T47D): 45.5 µM (inactive) | GI50 (TK-10): 41.3 µM (inactive) | GI50 (U-251): 16.7 µM (inactive) | GI50 (UACC-257): 25.8 µM (inactive) | GI50 (UACC-62): 21.8 µM (inactive) | GI50 (UO-31): 32.1 µM (inactive)

COc1ccc2oc3c(C)cc4c(OC)nnc(OC)c4c3c2c1
GI50 (786-0): 7.52 µM (inactive) | GI50 (A498): 17.4 µM (inactive) | GI50 (A549): 9.57 µM (inactive) | GI50 (ACHN): 5.05 µM (inactive) | GI50 (BT-549): > 100 µM (inactive) | GI50 (CAKI-1): 34 µM (inactive) | GI50 (CCRF-CEM): 5.21 µM (inactive) | GI50 (COLO 205): 10.8 µM (inactive) | GI50 (DU-145): > 100 µM (inactive) | GI50 (EKVX): 17.9 µM (inactive) | GI50 (HCC 2998): 16.7 µM (inactive) | GI50 (HCT-116): 2.17 µM (inactive) | GI50 (HCT-15): 7.83 µM | GI50 (HL-60): 13.5 µM (inactive) | GI50 (HOP-62): 17.7 µM (inactive) | GI50 (HOP-92): 10.9 µM (inactive) | GI50 (HT-29): 4.57 µM (inactive) | GI50 (Hs-578T): 31 µM (inactive) | GI50 (K562): 6.87 µM (inactive) | GI50 (KM12): 27.4 µM (inactive) | GI50 (LOX IMVI): 5.55 µM (inactive) | GI50 (M14): 16.5 µM (inactive) | GI50 (MCF7): 16.3 µM (inactive) | GI50 (MDA-MB-231): 22.9 µM (inactive) | GI50 (MDA-MB-435): 25.4 µM (inactive) | GI50 (MDA-N): 18 µM (inactive) | GI50 (MOLT-4): 2.81 µM (inactive) | GI50 (Malme-3M): 9.95 µM (inactive) | GI50 (NCI-H226): 30.8 µM (inactive) | GI50 (NCI-H23): 17.9 µM (inactive) | GI50 (NCI-H460): 3.79 µM (inactive) | GI50 (NCI-H522): 6.76 µM (inactive) | GI50 (NCI/ADR-RES): 18.4 µM (inactive) | GI50 (OVCAR-3): > 100 µM (inactive) | GI50 (OVCAR-4): 34.6 µM (inactive) | GI50 (OVCAR-5): > 100 µM (inactive) | GI50 (OVCAR-8): 6.65 µM (inactive) | GI50 (PC-3): 12.8 µM (inactive) | GI50 (RPMI-8226): 4.93 µM (inactive) | GI50 (RXF 393): 58.1 µM (inactive) | GI50 (SF-268): 6.53 µM (inactive) | GI50 (SF-295): 8.51 µM (inactive) | GI50 (SF-539): 7.89 µM (inactive) | GI50 (SK-MEL-28): 68.2 µM (inactive) | GI50 (SK-MEL-2): 82.4 µM (inactive) | GI50 (SK-MEL-5): 6.15 µM (inactive) | GI50 (SK-OV-3): > 100 µM (inactive) | GI50 (SN12C): 7.76 µM (inactive) | GI50 (SNB-19): 13.6 µM (inactive) | GI50 (SNB-75): 4.88 µM (inactive) | GI50 (SW-620): 7.57 µM (inactive) | GI50 (T47D): 29.9 µM (inactive) | GI50 (TK-10): 16.9 µM (inactive) | GI50 (U-251): 1.98 µM (inactive) | GI50 (UACC-257): 42 µM (inactive) | GI50 (UACC-62): 9.31 µM (inactive) | GI50 (UO-31): 6.93 µM (inactive)
